According to US20250064886A1, “CARDIOVASCULAR AND CEREBROVASCULAR DRUG AND USE THEREOF” (HANGZHOU ADAMERCK PHARMLABS INC., priority 2021, published 2025):
Values joined by “and” are separate entries in the source; they are usually repeats but may differ in a detail not shown here. Equal values may be shown once.

What was measured:
[1] = test system: cerebral ischemic injury in rats caused by autologous thrombus and thrombin; test: Ischemic brain injury in rats caused by autologous thrombus and thrombin (Example 6); format: in vivo, rat
Experimental: The drug was administered once by slow tail vein injection (1 ml per minute) 2 h after modeling, and the decrease in blood flow was monitored after the injection of thrombin, and 120 min after the administration of the drug. Neurobehavioral scoring was performed to determine the neurological function of rats after 24 h. The cerebral infarction rate and cerebral water content of rats were determined using 2,3,5-triphenyltetrazolium chloride (TTC) staining method, and the pathological damage of the brain of rats administered with drug 2 h after cerebral ischemia was observed by hematoxylin-eosin (HE) staining.

[2] = test system: vascular endothelial injury induced thrombosis model in zebrafish; test: Preventative effect on vascular endothelial injury induced thrombosis, ponatinib zebrafish model (Example 1); format: in vivo; settings: 4.00 ng/tail injected
Experimental: Experimental method: 420 tails of 5 dpf wild type AB strain zebrafish were randomly selected and placed in a six-well plate, with 30 fish per well (experimental group). The fish were injected with compound (1), compound (2), compound (3), compound (4), compound (5), compound (6), compound (7), compound (8), compound (9), compound (10), and compound (11) (structural formula shown in Table 1) at a dose of 4.00 ng/tail, with positive control drug acetylsalicylic acid being administered by dissolving it in water at a concentration of 30.0 µg/mL. Normal control group (i.e. zebrafish treated with standard diluted water) and model control group were set up, with a capacity of 3 mL per well (experimental group). Except for normal control group, the remaining experimental groups were all given Punatinib by dissolving it in water to induce vascular endothelial injury induced thrombosis model in zebrafish. The zebrafish were stained with o-dianisidine after co-treatment with ponatinib and samples for a period of time under incubation conditions at 28° C.
After staining, 10 zebrafish in each group were randomly selected and photographed under the microscope, and the intensity of cardiac erythrocyte staining in zebrafish was analyzed using NIS-Elements D 3.20 advanced image-processing software, and the samples were evaluated for the preventative effect on vascular endothelial injury induced thrombosis by the statistical results of cardiac erythrocyte staining intensity.
The preventative effect on thrombosis is calculated as follows: […]
Statistical analysis was performed using SPSS software, and p<0.05 indicates significant differences

[3] = test system: tryptase; test: Sensitization risk: tryptase expression (OD, BAPNA) in zebrafish (Example 2); format: in vivo; settings: for Sensitization risk, in words: 500 ng/tail; for Relative sensitization risk (compared with positive control group) / Sensitization risk (%) / Absorbance value (OD value), parallel wells 1-6 / Absorbance value (OD value), mean: 500 ng/tail intravenous; for Absorbance value (OD value), parallel wells 1-6: 28° C. 1 day, single wells; for Absorbance value (OD value), mean: mean of 6 wells
Experimental: Experimental method: 2 dpf wild type AB strain zebrafish were randomly selected and placed in a 24-well plate, with each group 6 parallel wells and 10 zebrafish per well. The zebrafish were injected intravenously with samples at a dose of 500 ng/tail and the positive control “C48/80” at a concentration of 1.5 μg/mL, while normal control group was set up. Each well has a capacity of 1 mL.
All experimental groups were given BAPNA by dissolving it in the water. After treatment at 28° C. for 1 day, the liquid was transferred to 96-well plates with 200 μL/well, and the relative absorbance values (OD values) of the expression levels of tryptase in each experimental group were detected using an microplate reader, and the results of the statistical analysis of the OD values were used to evaluate the risk of sensitization by sample. Statistical results were expressed as mean±SE.
Statistical analysis was performed using SPSS software, and p<0.05 indicates significant differences.

[4] = test system: arteriovenous bypass thrombosis in rats; test: Arteriovenous bypass thrombosis in rats (Example 4); format: in vivo, rat
Experimental: Grouping: Divided into 5 groups, with 10 animals in each group. The model control group was given with solvent, and the test drug compound (1) and the positive control were given intravenously once a day for consecutive 3 d. The modeling started 30 min after the last dose.
Model preparation: 50 SD male rats were anesthetized with sodium pentobarbital at a dose of 60 mg/kg via ip. The rat was fixed in the supine position, and the skin was incised at the midline of the neck; the fascia and muscle tissues were separated, the left common carotid artery and the right external jugular vein were dissociated, and the arterio-venous (A-V) bypass surgery was performed using the polyethylene tubing with a built-in thread. The arterial clip was used to clamp the proximal end of the carotid artery, and one end of the polyethylene tubing was inserted into the artery, and another end was inserted into the vein, thereby completing the bypass surgery. 30 minutes after the last dose, the arterial clip was opened, and blood flowed from the left common carotid artery to the right external jugular vein through the bypass tubing, and the blood flow formed a bypass circulation, and the thrombus was taken out 15 min later.
(§1) Detection index: the blood flow was open after 15 min, the thread was taken out, the residual liquid was sucked dry, the thread attached with thrombus was weighed and the wet weight of thrombus was calculated; the dry weight of thrombus was weighed and calculated after bake-drying in the oven at 50° C. Thrombosis inhibition rate was calculated. Tails were clipped at the end of the experiment to detect bleeding time.

[5] = test system: rats; test: Bleeding time in rats, tail clipping (Example 4); format: in vivo, rat
Experimental: as §1, with “Grouping: Divided into 5 groups, with 10 animals in each group. […] The modeling started 30 min after the last dose. Detection” for “Detection”

[6] = test system: rats with focal cerebral ischemia (MCAO)/reperfusion; test: Preventative administration, cerebral ischemia-reperfusion injury MCAO/R in rats (Example 5); format: in vivo, rat
Experimental: Experimental method: SD rats were randomly divided into six groups, i.e., pseudosurgery group, model control group, positive control drug ozagre (6 mg/kg) group, and administration drug compound (1) high-dose (67.5 mg/kg) group, medium-dose (22.5 mg/kg) group, and low-dose (7.5 mg/kg) group. The administration group was pre-administered via tail vein injection, while the pseudosurgery group and model control group were given equal volumes of physiological saline once a day for 3 consecutive days. 10 minutes after the last administration, a rat MCAO/R model was established and performed reperfusion 2 hours post ischemia. 24 hours after MCAO reperfusion, the neurobehavioral scores of rats were performed to determine their neurological function; the cerebral infarction rate and cerebral water content in rats were determined using 2,3,5-triphenyltetrazolium chloride (TTC) staining method.

[7] = test system: vascular endothelial-injury thrombosis model in zebrafish; test: Preventative effect of compound (1) on vascular endothelial injury induced thrombosis in zebrafish (Example 3); format: in vivo; settings: 30 μg/mL in water
Experimental: Experimental method: Wild-type AB strain zebrafish were treated with 4 μg/mL punatinib for 18 h to establish vascular endothelial-injury thrombosis model in zebrafish. 150 of 5 dpf wild-type AB strain zebrafish were randomly selected and placed in six-well plates with 30 fish per well (experimental group). The zebrafish were injected with compound (1) at a dose of 2.06 ng/tail, and 6.18 ng/tail, and the positive control drug acetylsalicylic acid was given by dissolving it in water with a concentration of 30 µg/mL, while the normal control group (i.e., zebrafish treated with standard dilution water) and the model control group were set up, and the volume of each well (experimental group) was 3 mL. Except for normal control group, the remaining experimental groups were all given Punatinib by dissolving it in water to induce vascular endothelial injury thrombosis model in zebrafish. The zebrafish were co-treated with compound (1) and punatinib for a period of time under incubation condition at 28° C., and then stained with o-dianisidine. After staining, 10 zebrafish were randomly selected from each group and photographed under the microscope. The intensity of cardiac erythrocyte staining in zebrafish was analyzed using NIS-Elements D 3.10 advanced image-processing software, and the preventative effect of compound (I) on vascular endothelial injury thrombosis was evaluated based on the statistical results of cardiac erythrocyte staining intensity. The preventative effect on thrombosis is calculated as follows: […]
Statistical analysis were performed using Analysis of Variance and Dunnett's t-test, and p<0.05 indicates a significant difference, providing a representative experimental plot.

[8] = test system: vascular endothelial injury induced thrombosis model in zebrafish; test: Preventative effect on vascular endothelial injury induced thrombosis, ponatinib zebrafish model (Example 1); format: in vivo; settings: 30.0 μg/mL dissolved in water
[9] = 16 mg/kg i.v. once a day 3 d, in g (unit assumed)

Molecule: Urokinase [reference compound]
- Cerebral blood flow: Percentage decrease after injection of thrombin (%) ([1]; 5000 U/kg group, value before administration): 50.10 ± 7.94%
- Cerebral infarction rate (%) ([1]; 5000 U/kg i.v.): 9.72 ± 9.89 %
- Cerebral water content (%) ([1]; 5000 U/kg i.v.): 79.78 ± 0.72 %
- Cerebral blood flow: Percentage decrease two hours after administration (%) ([1]; 5000 U/kg i.v. once 2 h after modeling): 37.12 ± 4.49 %
- Pathological damage score ([1]; 5000 U/kg i.v., HE staining): 1.75 ± 0.86
- Behavioral score ([1]; 5000 U/kg i.v., after 24 h): 1.60 ± 0.70

Molecule: CC(=O)N[C@@H](CSCC1OC2OC3C(CSC[C@H](NC(C)=O)C(=O)[O-])OC(OC4C(CSC[C@H](NC(C)=O)C(=O)[O-])OC(OC5C(CSC[C@H](NC(C)=O)C(=O)[O-])OC(OC6C(CSC[C@H](NC(C)=O)C(=O)[O-])OC(OC7C(CSC[C@H](NC(C)=O)C(=O)[O-])OC(OC8C(CSC[C@H](NC(C)=O)C(=O)[O-])OC(OC9C(CSC[C@H](NC(C)=O)C(=O)[O-])OC(OC1C(O)C2O)C(O)C9O)C(O)C8O)C(O)C7O)C(O)C6O)C(O)C5O)C(O)C4O)C(O)C3O)C(=O)[O-].[Na+].[Na+].[Na+].[Na+].[Na+].[Na+].[Na+].[Na+] (some centres unmarked) [Compound (2)]
- Preventative effect on thrombosis (%) [2]: 39%
- Cardiac erythrocyte staining intensity (pixels, mean ± SE) ([2]; n = 10): 3655 ± 318 pixels
- Cardiac erythrocyte staining intensity (pixels, mean ± SE) ([2]; n = 10, listed as compound (2)): 3655 pixels
- Sensitization risk, in words [3]: no or substantially no sensitization risk
- Relative sensitization risk (compared with positive control group) [3]: −4%
- Sensitization risk (%) [3]: −3.7%
- Absorbance value (OD value), parallel wells 1-6 [3]: 0.05655 and 0.05255 and 0.04865 and 0.04785 and 0.05085 and 0.05405
- Absorbance value (OD value), mean [3]: 0.052

Molecule: OCC1OC2OC3C(CO)OC(OC4C(CO)OC(OC5C(CO)OC(OC6C(CO)OC(OC7C(CO)OC(OC8C(CO)OC(OC9C(CO)OC(OC1C(O)C2O)C(O)C9O)C(O)C8O)C(O)C7O)C(O)C6O)C(O)C5O)C(O)C4O)C(O)C3O (centres unmarked) [Compound (10)]
- Preventative effect on thrombosis (%) [2]: 64%
- Cardiac erythrocyte staining intensity (pixels, mean ± SE) ([2]; n = 10): 4326 ± 383 pixels
- Cardiac erythrocyte staining intensity (pixels, mean ± SE) ([2]; n = 10, listed as compound (10)): 4326 pixels
- Sensitization risk, in words [3]: low sensitization risk
- Relative sensitization risk (compared with positive control group) [3]: 33%
- Sensitization risk (%) [3]: 27.8%
- Absorbance value (OD value), parallel wells 1-6 [3]: 0.07115 and 0.06947 and 0.06795 and 0.07585 and 0.06445
- Absorbance value (OD value), mean [3]: 0.069

Molecule: O=C(O)/C=C/c1ccc(Cn2ccnc2)cc1 [Ozagre, ozagrel, reference compound]
- Dry weight inhibition rate (%) ([4]; 16 mg/kg i.v.): 34.1%
- Wet weight inhibition rate (%) ([4]; 16 mg/kg i.v.): 34%
- Dry weight of thrombus [4, 9]: 0.0054 ± 0.0018
- Wet weight of thrombus [4, 9]: 0.0208 ± 0.0041
- Bleeding time ([5]; 16 mg/kg i.v.): 740.8 ± 224 s
- Effect on the bleeding time in rats, in words ([5]; intravenous, compared with model control group): significantly prolonged
- Cerebral infarction rate (%) ([6]; 6 mg/kg tail vein, once a day 3 days before MCAO/R, 24 h after reperfusion, mean ± SD, n = 8): 14.39 ± 8.14 %
- Behavioral score ([6]; 6 mg/kg, preventative): 1.50 ± 0.56
- Cerebral water content (%) ([6]; 6 mg/kg, preventative, tail vein 3 days): 78.42 ± 3.73 %

Molecule: CC(=O)Oc1ccccc1C(=O)O [Acetylsalicylic acid, acetylsalicylic acid, reference compound]
- Thromboprophylactic effect (%) [7]: 85%
- Cardiac erythrocyte staining intensity (pixels, mean ± SE) ([7]; n = 10): 4655 ± 136 pixels
- Preventative effect on thrombosis (%) [8]: 101%
- Cardiac erythrocyte staining intensity (pixels, mean ± SE) ([8]; n = 10): 5345 ± 228 pixels
